# Data: US4493828A, “Use of thyrotropin releasing hormone and related peptides as poultry growth promotants” (Merck & Co., Inc., priority 1982, dated 1985)
# Tested on: 4-week-old Hubbard×Hubbard cockerels
# Assay: Example 2: effect of TRH on growth in 4-week-old male chicks (25 days)
# Type: in vivo, chicken
# Procedure: Four-week-old Hubbard×Hubbard cockerels were used in this experiment, and average weight was 831.38 g. Synthetic TRH (Beckman Co., CA) was dissolved in saline and given daily by intravenous injection via the brachial vein at 0.1 μg/bird, 1.0 μg/bird, and 10 μg/ bird. Birds were weighed twice a week for 4 weeks. Data were analyzed by least squares of variance, using initial weight as a covariant.
# [1] = TRH (high) 10 μg/bird daily intravenous, day 11 after start of treatment
# [2] = TRH (high) 10 μg/bird daily intravenous, day 15 after start of treatment
# [3] = TRH (high) 10 μg/bird daily intravenous, day 18 after start of treatment
# [4] = TRH (high) 10 μg/bird daily intravenous, day 22 after start of treatment
# [5] = TRH (high) 10 μg/bird daily intravenous, day 25 after start of treatment
# [6] = TRH (low) 0.1 μg/bird daily intravenous, day 4 after start of treatment
# [7] = TRH (low) 0.1 μg/bird daily intravenous, day 8 after start of treatment
# [8] = TRH (low) 0.1 μg/bird daily intravenous, day 11 after start of treatment
# [9] = TRH (low) 0.1 μg/bird daily intravenous, day 15 after start of treatment
# [10] = TRH (low) 0.1 μg/bird daily intravenous, day 18 after start of treatment
# [11] = TRH (low) 0.1 μg/bird daily intravenous, day 18 after start of treatment, p < 0.1
# [12] = TRH (low) 0.1 μg/bird daily intravenous, day 22 after start of treatment
# [13] = TRH (low) 0.1 μg/bird daily intravenous, day 22 after start of treatment, p < 0.1
# [14] = TRH (low) 0.1 μg/bird daily intravenous, day 25 after start of treatment, p < 0.1
# [15] = TRH (med.) 1.0 μg/bird daily intravenous, day 4 after start of treatment
# [16] = TRH (med.) 1.0 μg/bird daily intravenous, day 8 after start of treatment
# [17] = TRH (med.) 1.0 μg/bird daily intravenous, day 11 after start of treatment
# [18] = TRH (med.) 1.0 μg/bird daily intravenous, day 15 after start of treatment
# [19] = TRH (med.) 1.0 μg/bird daily intravenous, day 18 after start of treatment
# [20] = TRH (med.) 1.0 μg/bird daily intravenous, day 18 after start of treatment, p < 0.1
# [21] = TRH (med.) 1.0 μg/bird daily intravenous, day 22 after start of treatment
# [22] = TRH (med.) 1.0 μg/bird daily intravenous, day 22 after start of treatment, p < 0.05
# [23] = TRH (med.) 1.0 μg/bird daily intravenous, day 25 after start of treatment, p<0.025
compound,measurement,setting,value
"NC(=O)[C@@H]1CCCN1C(=O)[C@H](Cc1c[nH]cn1)NC(=O)[C@@H]1CCC(=O)N1 [TRH, Glp--His--Pro--NH2]","body weight, percent increased as compared with control","TRH (high) 10 μg/bird daily intravenous, day 8 after start of treatment",0%
same,body weight gain,[1],542.9 ± 20.5 g
same,"body weight gain, percent increase as compared with control",[1],0%
same,"body weight, least squares mean ± standard error of the mean corrected by initial weight",[1],1381.7 ± 20.3 g
same,"body weight, percent increased as compared with control",[1],0%
same,body weight gain,[2],786.4 ± 20.4 g
same,"body weight gain, percent increase as compared with control",[2],0.9%
same,"body weight, least squares mean ± standard error of the mean corrected by initial weight",[2],1627.6 ± 20.4 g
same,"body weight, percent increased as compared with control",[2],0.4%
same,body weight gain,[3],981.5 ± 24.3 g
same,"body weight gain, percent increase as compared with control",[3],2.7%
same,"body weight, least squares mean ± standard error of the mean corrected by initial weight",[3],1821.6 ± 24.2 g
same,"body weight, percent increased as compared with control",[3],1.4%
same,body weight gain,[4],1193.2 ± 26.3 g
same,"body weight gain, percent increase as compared with control",[4],2.1%
same,"body weight, least squares mean ± standard error of the mean corrected by initial weight",[4],2034.4 ± 26.3 g
same,"body weight, percent increased as compared with control",[4],1.2%
same,body weight gain,[5],1390.9 ± 28.7 g
same,"body weight gain, percent increase as compared with control",[5],2.9%
same,"body weight, least squares mean ± standard error of the mean corrected by initial weight",[5],2232.1 ± 28.7 g
same,"body weight, percent increased as compared with control",[5],1.7%
same,body weight gain,[6],167.1 ± 8.4 g
same,"body weight gain, percent increase as compared with control",[6],11.8%
same,"body weight, least squares mean ± standard error of the mean corrected by initial weight",[6],1012.2 ± 8.3 g
same,"body weight, percent increased as compared with control",[6],+2.2%
same,body weight gain,[7],407.6 ± 15.1 g
same,"body weight gain, percent increase as compared with control",[7],7.8%
same,"body weight, least squares mean ± standard error of the mean corrected by initial weight",[7],1248 ± 15.0 g
same,"body weight, percent increased as compared with control",[7],+2.4%
same,body weight gain,[8],585.1 ± 20.5 g
same,"body weight gain, percent increase as compared with control",[8],7.0%
same,"body weight, least squares mean ± standard error of the mean corrected by initial weight",[8],1426.4 ± 20.3 g
same,"body weight, percent increased as compared with control",[8],+2.8%
same,body weight gain,[9],822.9 ± 20.4 g
same,"body weight gain, percent increase as compared with control",[9],5.6%
same,"body weight, least squares mean ± standard error of the mean corrected by initial weight",[9],1664.2 ± 20.4 g
same,"body weight, percent increased as compared with control",[9],+2.7%
same,"body weight gain, percent increase as compared with control",[10],6.3%
same,"body weight, percent increased as compared with control",[10],+3.3%
same,body weight gain,[11],1015.8 ± 24.3 g
same,"body weight, least squares mean ± standard error of the mean corrected by initial weight",[11],1856.9 ± 24.2 g
same,"body weight gain, percent increase as compared with control",[12],6.4%
same,"body weight, percent increased as compared with control",[12],3.7%
same,body weight gain,[13],1243.5 ± 26.3 g
same,"body weight, least squares mean ± standard error of the mean corrected by initial weight",[13],2084.7 ± 26.3 g
same,"body weight, percent increased as compared with control","TRH (low) 0.1 μg/bird daily intravenous, day 25 after start of treatment",3.4%
same,"body weight gain, percent increase as compared with control","TRH (low) 0.1 μg/bird daily intravenous, day 25 after start of treatment (end of experiment)",5.6%
same,body weight gain,[14],1428.1 g
same,"body weight, least squares mean ± standard error of the mean corrected by initial weight",[14],2269.3 g
same,body weight gain,[15],170.1 ± 7.9 g
same,"body weight gain, percent increase as compared with control",[15],13.9%
same,"body weight, least squares mean ± standard error of the mean corrected by initial weight",[15],1010.3 ± 7.8 g
same,"body weight, percent increased as compared with control",[15],+2.0%
same,body weight gain,[16],413.4 ± 14.2 g
same,"body weight gain, percent increase as compared with control",[16],9.3%
same,"body weight, least squares mean ± standard error of the mean corrected by initial weight",[16],1254.1 ± 14.2 g
same,"body weight, percent increased as compared with control",[16],+2.8%
same,body weight gain,[17],573.1 ± 19.3 g
same,"body weight gain, percent increase as compared with control",[17],4.5%
same,"body weight, least squares mean ± standard error of the mean corrected by initial weight",[17],1415.4 ± 19.1 g
same,"body weight, percent increased as compared with control",[17],+2.0%
same,body weight gain,[18],823.2 ± 19.2 g
same,"body weight gain, percent increase as compared with control",[18],5.7%
same,"body weight, least squares mean ± standard error of the mean corrected by initial weight",[18],1664.4 ± 19.2 g
same,"body weight, percent increased as compared with control",[18],+2.7%
same,"body weight gain, percent increase as compared with control",[19],6.6%
same,"body weight, percent increased as compared with control",[19],+3.5%
same,body weight gain,[20],1018.9 ± 22.9 g
same,"body weight, least squares mean ± standard error of the mean corrected by initial weight",[20],1860.1 ± 22.8 g
same,"body weight gain, percent increase as compared with control",[21],7.0%
same,"body weight, percent increased as compared with control",[21],4.1%
same,body weight gain,[22],1250.5 ± 24.8 g
same,"body weight, least squares mean ± standard error of the mean corrected by initial weight",[22],2091.7 ± 24.8 g
same,"body weight, percent increased as compared with control","TRH (med.) 1.0 μg/bird daily intravenous, day 25 after start of treatment",4.6%
same,"body weight gain, percent increase as compared with control","TRH (med.) 1.0 μg/bird daily intravenous, day 25 after start of treatment (end of experiment)",7.5%
same,body weight gain,[23],1453.2 g
same,"body weight, least squares mean ± standard error of the mean corrected by initial weight",[23],2294.4 g
